# From US10639287B2, “Compounds for the treatment of mitochondrial diseases” (UNIVERSITE PARIS-SUD, priority 2014, dated 2020)
# How the values were obtained:
# [1] = test system: mip1^G651S and mip1^A692T yeast mutants, Δsml1; experiment: Small colony frequency in mip1 strains with or without SML1 deletion (mtDNA stability); assay type: cell-based, Saccharomyces cerevisiae; conditions: 32 μM
# Experimental: Deletion of the SML1 gene encoding the inhibitor of RNRI (ribonucleotide diphosphate reductase, enzyme limiting the synthesis pathway of dNTPs) is known to be a genetic suppressor of the instability of the mtDNA caused by mutations in the MIP1 gene (Wang P J, Chabes A, Casagrande R, Tian X C, Thelander L and Huffaker T C. (1997) Rnr4p a novel ribonucleotide reductase small-subunit protein. Mol Cell Biol, 17, 6114-6121).
# The frequency of the small colonies was determined for the mip1^G651S and mip1^A692T strains, whether deleted or not from the SML1 gene and in the presence of 32 μM clofilium tosylate or DMSO.
# From pre-cultures in selective medium (SC-TRP, 2% ethanol (v/v)) of mutated mip1 strains, 2.10^5 cells/mL were seeded in 2 mL of rich YPD medium in the presence of 32 μM clofilium tosylate or DMSO, then incubated at 28° C. for 24 hours. The cells were then diluted to have about 200 to 250 cells per dish and were spread on differential synthetic medium (SC-TRP, 0.3% glucose, 2% ethanol). The number of small colonies was calculated after 5 days of incubation at 28° C.
# [2] = test system: yeast cells expressing the wild-type MIP1 gene or the mutated mip1^G651S gene; experiment: Respiration (O2 consumption) of yeast cells, HANSATECH electrode; assay type: cell-based, Saccharomyces cerevisiae; conditions: 32 μM vs DMSO
# Experimental: The respiration rate is the amount of oxygen consumed per unit of time and biological material. It reflects the activity of the oxidative metabolism of the cells.
# Oxygen consumption was measured on whole cells using a HANSATECH electrode. The yeast cells expressing the wild-type MIP1 gene or the mutated mip1^G651S gene were cultured for 7-8 generations in a YPE medium (1% Yeast Extract, 0.5% Bacto Peptone, 2% Ethanol) supplemented with DMSO or 32 μM clofilium tosylate at 28° C. with stirring. A volume corresponding to a total of 60 units of DO600 of each culture was centrifuged for 5 min at 3000 g. The pellet was resuspended in YPE in order to have 6.10^5 cells/μl. 50 μL, that is to say 3.10^7 cells, were introduced into the measuring chamber of the HANSATECH electrode, which was maintained at 28° C. The O2 consumption was observed and recorded in real time. The O2 consumption rate was calculated from the linear part of the O2 consumption curve.
# [3] = test system: mitochondrial proteins POLG, TFAM and ATP5B; experiment: Amount of POLG, TFAM and ATP5B proteins in fibroblasts (western blot), cell growth conditions; assay type: cell-based, human; conditions: 0.5 μM or 1.0 μM, control and patient fibroblasts
# Experimental: Protein fractions of total extracts of control fibroblasts and of fibroblasts from a patient with a mutation on each allele of the POLG gene cultured in the presence of 0.1% DMSO or with 0.5 μM or 1.0 μM clofilium tosylate were analysed by electrophoresis.
# Skin fibroblasts from the control and from the patient were cultured to 100% confluence in a complete Dulbecco's Modified Eagle Medium (DMEM) high glucose medium (4.5 g/L D-glucose, 110 mg/L sodium pyruvate, 10% foetal bovine serum, 1% penicillin/streptomycin from the stock solution containing 10,000 I.U. penicillin and 10,000 μg/mL streptomycin) at 37° C. under 5% CO2. At confluence, the cultures were trypsinised and placed in culture at 30% confluence in a complete DMEM high glucose medium supplemented with either 0.1% DMSO or with 0.5 μM or 1.0 μM clofilium tosylate. The cells were then incubated at 37° C. under 5% CO2 and harvested at 100% confluence. After trypsinisation, the total proteins of the fibroblasts were extracted and analysed by western blot. The proteins studied were the POLG protein (subjected to SDS/PAGE gel analysis (6%)), the mitochondrial proteins ATP5B and TFAM, and the cytosolic protein TUB3A as batch control.
compound,measurement,setting,value
CCCCCCC[N+](CC)(CC)CCCCc1ccc(Cl)cc1.Cc1ccc(S(=O)(=O)[O-])cc1 [clofilium tosylate],"stability of the mtDNA, clofilium tosylate together with availability of dNTPs (SML1 deletion)",[1],additive effect
same,respiration of yeast cells (O2 consumption),[2],breathed better
same,"amount of mitochondrial proteins POLG, TFAM and ATP5B",[3],increased
